# Data: patent US20100204202A1, “DRUG FOR ALLEVIATING MOTOR COMPLICATIONS OR PSYCHIATRIC SYMPTOMS OF PARKINSON'S DISEASE” (Asubio Pharma Co., Ltd., priority 2007, published 2010)
# Counter-ions that a name gives are not always drawn.
# Key:
# [1] = target: T1, rat serotonin 1A receptors (Rattus norvegicus, UniProt P19327); assay: Adenylate cyclase inhibition test via rat serotonin 1A receptors (full agonist-partial agonist judgment test), rat hippocampus membranes; format: biochemical
# T1 construct: Each rat was decapitated and the hippocampus was quickly removed; from tissue; host or cells: hippocampus of male Wistar rats
# T1 sequence (P19327 1-422): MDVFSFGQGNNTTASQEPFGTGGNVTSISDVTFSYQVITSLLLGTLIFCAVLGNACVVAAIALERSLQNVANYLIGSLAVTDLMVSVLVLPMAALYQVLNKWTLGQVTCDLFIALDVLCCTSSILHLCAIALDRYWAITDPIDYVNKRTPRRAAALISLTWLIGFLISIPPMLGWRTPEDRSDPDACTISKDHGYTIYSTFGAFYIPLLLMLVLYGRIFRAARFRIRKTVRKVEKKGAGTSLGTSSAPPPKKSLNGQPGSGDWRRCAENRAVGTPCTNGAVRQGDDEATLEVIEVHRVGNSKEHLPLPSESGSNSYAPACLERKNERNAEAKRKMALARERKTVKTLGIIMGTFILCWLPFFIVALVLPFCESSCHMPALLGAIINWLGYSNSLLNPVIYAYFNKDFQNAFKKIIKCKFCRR
# Procedure: For the test, Wistar male rats supplied by Shimizu Laboratory Supplies were used (9 to 15 weeks old). Each rat was decapitated and the hippocampus was quickly removed. It was homogenized in 10 volumes of buffer (i.e., 25 mM Tris-HCl, 1 mM EGTA, 5 mM EDTA, 5 mM DTT, 300 mM sucrose, 100 KIU/ml aprotinin, pH 7.4). This was then centrifuged at 500×g, 4° C. for 5 minutes, the supernatant was further centrifuged at 39,000×g, 4° C. for 10 minutes, and the residue was used as the rat hippocampus membrane specimen. The rat hippocampus membrane specimen was diluted by a buffer to 20 to 90 μg/mL of protein, then 50 μL of this cell membrane suspension was added to a 200 μL assay buffer containing each test sample (25 mM Tris-HCl, 100 mM NaCl, 2 mM MgCl2. 0.25 mM ATP, 5 mM phosphocreatine, 10 μg/mL creatine phosphokinase, 0.2 mM IBMX, 10 μM GTP, 10 μM forskolin, pH 7.4) and allowed to react at 30° C. for 5 minutes. 0.2N HCl was added in 250 μL to stop the reaction, then the cAMP produced was assayed by the radioimmunoassay method. […] Note that the adenylate cyclase activity was measured using as an indicator the amount of cAMP produced by the same enzyme. The rate of inhibition by the serotonin 1A receptor agonist was found using the amount of production due to forskolin (10 μM) stimulus as 100%.
# [2] = Rate of biological utilization of SUN N4057 in rats; format: in vivo, rat
# Procedure: Note that the rate of biological utilization of SUN N4057 in the rats, with subcutaneous administration, was a good one of about 100%, but with intraperitoneal administration, was a low one of about 27%. Further, it became clear that this quickly was consumed peaking at 15 minutes after administration. For this reason, in intraperitoneal administration, a higher dosage was set than with subcutaneous administration.
# [3] = Concentration in plasma after sustained subcutaneous administration (osmotic pump); format: in vivo; details: rat, sc, after the end of the behavioral experiments
# Procedure: Therefore, the inventors prepared Parkinson's disease model rats in the same way as in Example 4 and treated the rats by repeated doses of levodopa (twice a day, Monday to Friday) for 7 weeks. The presence or absence of the rotational behavior of each rat was recorded at approximately 1 hour after the administration of levodopa during the repeated dosing period. […] Therefore, from weeks 1 to 5 of repeated doses of levodopa, the inventors recorded the presence of any rotational behavior of the rats each time, then studied the effects of the tested substances from week 6 of repeated doses of levodopa by implanting an Aizet® osmotic pump filled with SUN N4057 or physiological saline (2ML4, volume 2 ml, flow rate 2.5 μl/hr) subcutaneously at the rats. In the 2 weeks after that, the inventors similarly continued to record the presence of any rotational behavior of the rats 1 hour after levodopa administration.
# Note that the measured values of the concentration of SUN N4057 in the plasma of each group measured after the end of the behavioral experiments were 5.3±0.7 ng/mL in the SUN N4057 low dosage sustained subcutaneous administration group and 14.3±2.9 ng/mL in the high dosage sustained subcutaneous administration group.
# rats = assay: Forced swimming method (anti-depressive action); format: in vivo, rat
# Source text: For the test, Crl: CD(SD) male rats supplied by Charles River Japan were used (6 weeks old at start of test). For the forced swimming test, the method of the improved type reported by Lucki et al. (Lucki I., “The forced swimming test as a model for core and component behavioral effects of antidepressant drugs”, Behavioural Pharmacology, 1997, 8, p. 523-532; Cryan J. F. et al., “Assessing antidepressant activity in rodents: recent developments and future needs”, TRENDS in Pharmacological Sciences, 2002, 23, p. 238-245) was used. On day 1, each rat was placed in a cylinder filled with water (height 45 cm×diameter 30 cm, water depth 30 cm, water temperature 23° C., water depth set to depth by which back legs and tail of rat will not touch the bottom). The rat was taken out after 15 minutes. At this time, the immobility period (seconds) of minutes 10-15 (5 minutes) was recorded. Based on the results, the rats were assigned to five groups so that there would be no difference among the groups. On day 2, each rat was placed in a cylinder filled with water the same as day 1 and the immobility period (seconds), swimming behavior period (seconds), and climbing behavior period (seconds) of minutes 0-5 (5 minutes) were measured. Note that the immobility period was defined as the minimum extent of movement for the rat to hold its head above the water, the swimming behavior as the swimming behavior circling around the inside of the cylinder in the horizontal direction, and the climbing behavior as the climbing behavior moving the forelimbs in the vertical direction along the cylinder walls to try to climb them. The tested substance was intraperitoneally administered 15 minutes after the end of swimming on day 1, and 4 hours and 30 minutes before swimming on day 2. Further, for the amount of locomotor activity, a measuring system (shape 48.8×48.8×30 cm, vertical 8 fractions, horizontal 8 fractions, for total of 64 fractions, Biomedica) set in a blacked out soundproof box was used to record the amount of locomotor activity of the rats at minutes 0-15 (15 minutes). Note that the dosages and timings of administration of the tested substances were set in the same way as the forced swimming test and the substance were intraperitoneally administered 24 hours, 4 hours, and 30 minutes before measurement of the amount of locomotor activity.
smiles,measurement,setting,value
"O=C1c2ccccc2OC=C(Cl)N1CCCCN1CC=C(c2ccccn2)CC1 [SUN N4057, 3-chloro-4,5-dihydro-4-{4-[4-(2-pyridyl)-1,2,3,6-tetrahydropyridin-1-yl]butyl}-1,4-benzoxazepin-5-one.dihydrochloride-dihydrate]",IC50,"[1]; forskolin (10 μM) stimulated, rat hippocampus membranes, read-out: IC50 of adenylate cyclase inhibition (for the maximum reaction)",2.67 nM
same,inhibition,"[1]; forskolin (10 μM) stimulus = 100%, rat hippocampus membranes, read-out: maximum inhibitory reaction of adenylate cyclase activity",20%
same,full agonist-partial agonist judgment,[1]; serotonin 1A receptors of the serotonin nerve post-synapse membrane,partial agonist
same,rate of biological utilization,[2]; intraperitoneal administration,about 27%
same,time of peak after administration,[2]; intraperitoneal administration,15 min
same,rate of biological utilization,[2]; subcutaneous administration,about 100%
same,concentration at 2 weeks,[3]; high dosage sustained subcutaneous administration group,14.3 ± 2.9 ng/mL
same,concentration at 2 weeks,[3]; low dosage sustained subcutaneous administration group,5.3 ± 0.7 ng/mL
same,immobility period,"rats; 0.3, 1 and 3 mg/kg i.p., minutes 0-5 on day 2",significant shortening of the immobility period
same,swimming behavior period,"rats; 1, 3 mg/kg i.p.",significant increase
